How the values were obtained:
[1] = molecular target: T1, Monocarboxylate transporter 1 (Rattus norvegicus) (UniProt P53987); assay: TP_TRANSPORTER: change in intracellular pH(pHi)value in Xenopus laevis oocytes; type: functional, cell-based; settings: Oocyte
T1 sequence (whole entry): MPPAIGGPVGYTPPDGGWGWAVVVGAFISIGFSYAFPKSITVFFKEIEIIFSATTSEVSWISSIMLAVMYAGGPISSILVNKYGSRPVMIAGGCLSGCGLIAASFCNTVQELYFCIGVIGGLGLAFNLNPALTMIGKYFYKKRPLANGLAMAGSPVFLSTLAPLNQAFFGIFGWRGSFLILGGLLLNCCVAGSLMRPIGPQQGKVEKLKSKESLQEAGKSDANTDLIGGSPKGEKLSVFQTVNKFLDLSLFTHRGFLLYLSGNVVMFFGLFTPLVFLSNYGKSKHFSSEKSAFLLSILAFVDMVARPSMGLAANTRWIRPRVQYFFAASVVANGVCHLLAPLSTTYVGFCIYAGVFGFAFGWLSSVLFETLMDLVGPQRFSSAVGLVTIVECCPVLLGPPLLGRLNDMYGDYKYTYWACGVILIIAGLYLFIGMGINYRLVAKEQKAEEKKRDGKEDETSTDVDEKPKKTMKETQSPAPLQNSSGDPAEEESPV

[2] = molecular target: T1, Monocarboxylate transporter 1 (Rattus norvegicus); assay: TP_TRANSPORTER: inhibition of lactate uptake(pHi charge) in Xenopus laevis oocytes; type: functional, cell-based; settings: Oocyte

Compound	Activity [1]	Activity [2]
CC(O)CC(=O)O (racemic)	substrate [+]	
N#C/C(=C\c1ccc(O)cc1)C(=O)O		inhibitor [+]
CC(=O)CC(=O)O	substrate [+]	

From ChEMBL document CHEMBL2074082, “Characterization of the monocarboxylate transporter 1 expressed in Xenopus laevis oocytes by changes in cytosolic pH” (Biochem J, 1998)
